Measured values taken from BindingDB's records for doi:10.1016/S0960-894X(97)00417-4 (1997).
pKi: −log10 of the molar value.

Assay: Inhibition of [3H]pentazocine binding to Sigma opioid receptor type 1

SMILES | pKi
C=CCN1CC[C@@]2(C)c3cc(O)ccc3C[C@H]1[C@H]2C [(1S,9S,13S)-10-allyl-1,13-dimethyl-10-azatricyclo[7.3.1.0~2,7~]trideca-2,4,6-trien-4-ol] | 6.80
CC1(C)C2CC[C@@]1(C)CN(CCC1CCCCC1)C2 [(R)-3-(2-Cyclohexyl-ethyl)-1,8,8-trimethyl-3-aza-bicyclo[3.2.1]octane] | 8.85
CC1(C)C2CC[C@@]1(C)CN(CC1CCCCC1)C2 [(R)-3-Cyclohexylmethyl-1,8,8-trimethyl-3-aza-bicyclo[3.2.1]octane] | 8.96
CC1(C)C2CC[C@]1(C)CN(CCC1C3CC4CC(C3)CC1C4)C2 (stereo partly drawn) [(S)-3-(2-Adamantan-2-yl-ethyl)-1,8,8-trimethyl-3-aza-bicyclo[3.2.1]octane] | 8.37
CC1(C)C2CC[C@]1(C)CN(CCC1CCCCCC1)C2 [(S)-3-(2-Cycloheptyl-ethyl)-1,8,8-trimethyl-3-aza-bicyclo[3.2.1]octane] | 8.54
CC1(C)C2CC[C@]1(C)CN(CCC1CCCCC1)C2 [(S)-3-(2-Cyclohexyl-ethyl)-1,8,8-trimethyl-3-aza-bicyclo[3.2.1]octane] | 8.66
CC1(C)C2CC[C@]1(C)CN(CCC1CCCCCCC1)C2 [(S)-3-(2-Cyclooctyl-ethyl)-1,8,8-trimethyl-3-aza-bicyclo[3.2.1]octane] | 8.54
CC1(C)C2CC[C@]1(C)CN(CCC1CCCC1)C2 [(S)-3-(2-Cyclopentyl-ethyl)-1,8,8-trimethyl-3-aza-bicyclo[3.2.1]octane] | 8.77
CC1(C)C2CC[C@]1(C)CN(CCCC1CCCCC1)C2 [(S)-3-(3-Cyclohexyl-propyl)-1,8,8-trimethyl-3-aza-bicyclo[3.2.1]octane] | 8.60
CC1(C)C2CC[C@]1(C)CN(CCCCC1CCCCC1)C2 [(S)-3-(4-Cyclohexyl-butyl)-1,8,8-trimethyl-3-aza-bicyclo[3.2.1]octane] | 8.92
CC1(C)C2CC[C@]1(C)CN(C1CCCCC1)C2 [(S)-3-Cyclohexyl-1,8,8-trimethyl-3-aza-bicyclo[3.2.1]octane] | 8.52
CC1(C)C2CC[C@]1(C)CN(CC1CCCCC1)C2 [(S)-3-Cyclohexylmethyl-1,8,8-trimethyl-3-aza-bicyclo[3.2.1]octane] | 8.89
